Source: publication PMC7601839, “Anti-Acne Effects of Cembrene Diterpenoids from the Cultured Soft Coral Sinularia flexibilis” (Marine Drugs, 2020)

What was measured:
iNOS [1] = tested on: iNOS; parameters: method as in PMID 23774887; conditions: LPS-stimulated RAW264.7 macrophage cells; cited from earlier work
COX-2 [2] = assay: Western blot of COX-2 in HKC-treated RAW 264.7 cells; assay type: cell-based
Procedure: (§1) Whole-cell lysates were prepared using radioimmunoprecipitation (RIPA) assay. Proteins in lysate samples (30 μg) were analyzed using 10% sodium dodecylsulfate-polyacrylamide gel electrophoresis (SDS-PAGE). Gels were transferred to nitrocellulose membranes and probed with primary iNOS (clone N-20), COX-2 (clone C-20), p-ERK (clone N-20), p-JNK (clone N-20), and glyceraldehyde-3-phosphate dehydrogenase (GAPDH; clone 6C5) antibodies (Santa Cruz Biotechnology, Santa Cruz, CA, USA). Membranes were visualized with a BCIP/NBT kit (Gibco BRL, Grand Island, NY, USA). Protein expression was quantified using the Azure Biosystem C300 Imaging System. GAPDH expression was used as an internal control to compare with protein expressions of iNOS, COX-2, p-ERK, and p-JNK [24].
(§2) C. acnes (4 × 10^8 cfu/mL) was heated at 80 °C for 30 min and killed. Heat-killed C. acnes (HKC) was freeze-dried as a powder and maintained at 4 °C until use. RAW 264.7 and HaCaT cells were cultured in DMEM with 10% FBS, 1% penicillin-streptomycin, and 1% L-glutamine at 37 °C in a 5% CO2 atmosphere. RAW 264.7 cells (4 × 10^5 cells/mL) and HaCaT cells (10^5 cells/mL) were seeded in six-well plates and co-treated with HKC (300 μg/mL) and test samples [24]. After 24 h, NO production was determined by adding the Griess reagent in the cell culture medium, and the absorption was measured in an ELISA reader at 530 nm. The sample culture medium was removed, and RAW 264.7 cells and HaCaT cells were washed with PBS.

p-JNK [3] = assay: Western blot of p-JNK in LPS-induced RAW 264.7 cells; assay type: cell-based; conditions: 30 min, SC-2 2.5–20 μM, SC-7 5–40 μM, SC-9 2.5–20 μM
Procedure: as §1

p-ERK [4] = assay: Western blot of p-ERK in LPS-induced RAW 264.7 cells; assay type: cell-based; conditions: 30 min, SC-2 2.5–20 μM, SC-7 5–40 μM, SC-9 2.5–20 μM
Procedure: as §1

[5] = tested on: Dihydrotestosterone-induced HaCaT cells; assay: Anti-proliferative activity in dihydrotestosterone-treated HaCaT cells (MTT); assay type: cell-based, human; conditions: for keratinocyte over-proliferation by DHT: HaCaT keratinocytes
Procedure: (§3) HaCaT cells (10^5 cells/mL) were seeded in 96-well plates and co-treated with testosterone (5 μg/mL) or DHT (5 μg/mL) and test samples with no cytotoxicity for 48 h. Cell proliferative activity was detected by an MTT assay.

[6] = tested on: LPS-induced RAW 264.7 cells (NO production); assay: NO production (Griess) in LPS-induced RAW 264.7 cells; assay type: cell-based; conditions: for inhibition at 20 µM / IC50: Mus musculus, RAW264.7, 24 h; for IC50: read-out: IC50 Value of NO Inhibition
Procedure: (§4) Anti-inflammatory effects were analyzed in RAW 264.7 cells, which were cultured in DMEM with 10% FBS, 1% L-glutamine, and 1% penicillin-streptomycin, and maintained at 37 °C in a 5% CO2 atmosphere. RAW 264.7 cells (4.0 × 10^5 cells/mL) were seeded in 96-well plates and co-treated with LPS (500 ng/mL) and test samples. After 24 h, NO production was determined by Griess reagent, and the absorption was detected at 530 nm. The percentage inhibition of NO production was presented as the anti-inflammatory activity. PGE2 concentrations in cell culture media were determined with a PGE2 enzyme-linked immunosorbent assay (ELISA) kit (Enzo Life Sciences, Farmingdale, NY, USA). The survival rate of RAW 264.7 cells was detected using an MTT assay.

[7] = tested on: HKC-induced RAW 264.7 cells (NO production); assay: NO production (Griess) in heat-killed C. acnes (HKC)-induced RAW 264.7 cells; assay type: cell-based; conditions: Mus musculus, RAW264.7, 24 h, read-out: IC50 Value of NO Inhibition
Procedure: as §2

COX-2 [8] = assay: Western blot of COX-2 in LPS-induced RAW 264.7 cells; assay type: cell-based; conditions: 6 h and 24 h
Procedure: as §1

p-ERK [9] = assay: Western blot of p-ERK in HKC-treated HaCaT cells; assay type: cell-based, human; conditions: 30 min after HKC induction
Procedure: as §1, §2

[10] = tested on: LPS-induced RAW 264.7 cells (PGE2 production); assay: PGE2 production (ELISA) in LPS-induced RAW 264.7 cells; assay type: cell-based; conditions: for inhibitory effect on prostaglandin E2 (PGE2) production: 24 h
Procedure: as §4

[11] = tested on: Testosterone-induced HaCaT cells; assay: Anti-proliferative activity in testosterone-treated HaCaT cells (MTT); assay type: cell-based, human; conditions: for testosterone-induced HaCaT cell proliferation: SC-2 1.25–5, SC-7 2.5–10, SC-9 0.08–0.32 μM, 48 h
Procedure: as §3

iNOS [12] = assay: Western blot of iNOS in HKC-treated RAW 264.7 cells; assay type: cell-based
Procedure: as §1, §2

p-ERK [13] = assay: Western blot of p-ERK in HKC-treated RAW 264.7 cells; assay type: cell-based; conditions: SC-2 2.5–20 μM, SC-7 5–40 μM, SC-9 2.5–20 μM
Procedure: as §1, §2

iNOS [14] = assay: Western blot of iNOS in LPS-induced RAW 264.7 cells; assay type: cell-based; conditions: 24 h
Procedure: as §1

p-JNK [15] = assay: Western blot of p-JNK in HKC-treated RAW 264.7 cells; assay type: cell-based; conditions: SC-2 2.5–20 μM, SC-7 5–40 μM, SC-9 2.5–20 μM
Procedure: as §1, §2

HaCaT cells = assay: Cytotoxicity analysis in HaCaT cells; assay type: cell-based, human; conditions: for growth inhibition of HaCaT cells: at high doses
[16] = Survival rate of RAW 264.7 cells by MTT assay; assay type: cell-based; conditions: mouse, LPS-induced RAW 264.7 cells, read-out: Cell Viability (%)
Procedure: as §4

COX-2 [17] = tested on: COX-2; parameters: method as in PMID 23774887; conditions: LPS-stimulated RAW264.7 macrophage cells; cited from earlier work
[18] = Homo sapiens, dihydrotestosterone-induced HaCaT cells
[19] = Homo sapiens, testosterone-induced HaCaT cells

Row | Compound | accumulation of the proinflammatory iNOS protein (iNOS [1]) | COX-2 expression (COX-2 [2]) | p-JNK protein expression (p-JNK [3]) | p-ERK protein expression (p-ERK [4]) | keratinocyte over-proliferation by DHT [5] | inhibition at 20 µM [6] | IC50 [6] | IC50 [7] | COX-2 protein expression (COX-2 [8]) | p-ERK protein expression (p-ERK [9]) | inhibitory effect on prostaglandin E2 (PGE2) production [10] | testosterone-induced HaCaT cell proliferation [11] | iNOS expression (iNOS [12]) | p-ERK expression (p-ERK [13]) | iNOS protein expression (iNOS [14]) | p-JNK expression (p-JNK [15]) | concentrations with no cytotoxicity to HaCaT cells (HaCaT cells) | viability at 24 h, 20 µM [16] | accumulation of COX-2 protein (COX-2 [17]) | further results
1 | flexibilisolides D | significantly inhibit |  |  |  |  |  |  |  |  |  |  |  |  |  |  |  |  |  |  | 
2 | C=C1C(=O)O[C@@H]2C[C@H]1CC[C@]1(C)O[C@H]1CC/C(C)=C/CC[C@]2(C)O [SC-9, sinularin] |  | no changes | dose-dependent inhibitory effects | dose-dependent inhibitory effects | inhibited keratinocyte over-proliferation | 102 ± 1.4% | 3.85 ± 0.25 µM | 2.81 ± 0.2 µM | more significant COX-2 inhibitory effects at 6 h than that at 24 h | significant inhibitory effects | no inhibitory effect | significantly decreased | significant inhibitory effects | good inhibitory effects | decreased iNOS protein expression | good inhibitory effects | 312 to 2500 nM | 98.9% |  | inhibition at 0.08 µM ([5]; Homo sapiens, dihydrotestosterone-induced HaCaT cells, 0.08 μM): 8.5 ± 0.7%; inhibition at 0.16 µM ([5]; Homo sapiens, dihydrotestosterone-induced HaCaT cells, 0.16 μM): 16 ± 0.7%; inhibition at 0.32 µM ([5]; Homo sapiens, dihydrotestosterone-induced HaCaT cells, 0.32 μM): 18 ± 3.1%; IC50 ([10]; Mus musculus, RAW264.7, 6 h, read-out: IC50 Value of PGE2 Inhibition): 6.22 µM; inhibition at 0.08 µM ([11]; Homo sapiens, testosterone-induced HaCaT cells, 0.08 μM): 6.5 ± 0.5%; inhibition at 0.16 µM ([11]; Homo sapiens, testosterone-induced HaCaT cells, 0.16 μM): 11.5 ± 1.3%; inhibition at 0.32 µM ([11]; Homo sapiens, testosterone-induced HaCaT cells, 0.32 μM): 19.1 ± 1.3%; growth inhibition of HaCaT cells (HaCaT cells): caused growth inhibition
3 | C=C(C(=O)O)[C@@H]1CC[C@@](C)(O)[C@@H]2CC[C@@](C)(O2)[C@@H](OC(C)=O)CC[C@]2(C)O[C@H]2C1 [SC-6, dendronpholide F] |  |  |  |  |  | -15.1% |  |  |  |  |  |  |  |  |  |  |  | 96.1 ± 0.4% |  | inhibitory effects on NO expression [6]: no inhibitory effects
4 | C=C1C(=O)O[C@]2(C)CC[C@@H]1C[C@@H]1O[C@@]1(C)CC/C=C(\C)CC[C@H]2O [11-epi-sinulariolide] | significantly inhibit |  |  |  |  |  |  |  |  |  |  |  |  |  |  |  |  |  | could reduce | 
5 | C=C1C(=O)OC2(C)CCC1CC1OC1(C)CCC(OC(C)=O)C1(C)CCC2O1 (stereo not drawn) [SC-7, 3,4:8,11-bisepoxy-7-acetoxycembra-15(17)-en-1,12-olide] | significantly inhibit | no changes | dose-dependent inhibitory effects | dose-dependent inhibitory effects | inhibited keratinocyte over-proliferation | 50.2 ± 5.5% | 15.2 ± 0.25 µM | 7.42 ± 0.4 µM | did not present identical COX-2 inhibitory effects | significant inhibitory effects | no inhibitory effect | significantly decreased | significant inhibitory effects | good inhibitory effects | decreased iNOS protein expression | good inhibitory effects | 5000 to 40000 nM | 96.1 ± 8.4% |  | inhibition at 2.5 µM [5, 18]: 9.5 ± 3.2%; inhibition at 5 µM [5, 18]: 13.1 ± 2.9%; inhibition at 10 µM ([5]; Homo sapiens, dihydrotestosterone-induced HaCaT cells, 10 μM): 13.8 ± 0.8%; inhibition at 2.5 µM [11, 19]: 13.2 ± 0.7%; inhibition at 5 µM [11, 19]: 14 ± 2%; inhibition at 10 µM ([11]; Homo sapiens, testosterone-induced HaCaT cells, 10 μM): 20.8 ± 0.9%
6 | C=C1C(=O)O[C@]2(C)CC[C@@H]1C[C@@H]1O[C@@]1(C)C/C=C/[C@@](C)(OO)CCC2=O [flexilarin D] | significantly inhibit |  |  |  |  |  |  |  |  |  |  |  |  |  |  |  |  |  |  | 
7 | C=C1C(=O)OC2(C)CCC1CC1OC1(C)CCC=C(C)CCC2=O (stereo not drawn) [SC-2, 11-dehydrosinulariolide] | significantly inhibit | no changes | dose-dependent inhibitory effects | dose-dependent inhibitory effects | inhibited keratinocyte over-proliferation | 92.4 ± 3% | 5.66 ± 0.19 µM | 5.81 ± 0.4 µM | did not present identical COX-2 inhibitory effects | significant inhibitory effects | no inhibitory effect | significantly decreased | significant inhibitory effects | good inhibitory effects | decreased iNOS protein expression | good inhibitory effects | 1250 to 10000 nM | 102 ± 9.4% | could reduce | inhibition at 1.25 µM ([5]; Homo sapiens, dihydrotestosterone-induced HaCaT cells, 1.25 μM): 10.6 ± 3%; inhibition at 2.5 µM [5, 18]: 12.3 ± 3.1%; inhibition at 5 µM [5, 18]: 16.8 ± 4%; inhibition at 1.25 µM ([11]; Homo sapiens, testosterone-induced HaCaT cells, 1.25 μM): 11.9 ± 5.5%; inhibition at 2.5 µM [11, 19]: 13.5 ± 1.1%; inhibition at 5 µM [11, 19]: 17.4 ± 2.8%; growth inhibition of HaCaT cells (HaCaT cells): caused growth inhibition
8 | flexibilisolides C | significantly inhibit |  |  |  |  |  |  |  |  |  |  |  |  |  |  |  |  |  | could reduce | 
9 | C/C1=C\CC[C@](C)(O)[C@H]2C[C@@H](CC[C@]3(C)O[C@H]3CC1)[C@H](C)C(=O)O2 [SC-10, dihydrosinularin] |  |  |  |  |  | 28.2 ± 4.6% |  |  |  |  |  |  |  |  |  |  |  | 117 ± 1.9% |  | inhibitory effects on NO expression [6]: no inhibitory effects
